# Assay results taken from patent US20150141523A1, “COMPOUNDS FOR USE IN THE TREATMENT OF AUTOIMMUNE INFLAMMATORY DISEASE” (Venantius Limited, priority 2012, published 2015).
# Experiments:
# CD-1 mice = experiment: Sheep red blood cell (SRBC) delayed-type hypersensitivity mouse paw swelling; type: in vivo; conditions: 30 mg/kg; vehicle 89%
# Description: The sheep red blood cells were first cleaned and counted as follows. 5 mls of the SRBC were spun down in a centrifuge at 3000 rpm for 10 minutes. The supernatant was removed and phosphate buffered saline (PBS), pH 7.4 added to the pellet. The pellet was mixed with the PBS buffer (5 mls) and spun down in a centrifuge at 3000 rpm for 10 minutes. The pellet was washed twice more with PBS buffer as described above. The pellet was then reconstituted in 5 mls of PBS buffer following the final wash. 10 μl of a 1 in 200 dilution of the sample of reconstituted sheep red blood cells (in trypan blue stain) was used to fill the counting chamber of a haemacytometer and the number of sheep red blood cells counted.
# Male CD-1 mice (30-40 gms) were sensitised on day zero. The negative control group was sensitised with 100 μl PBS intraperitoneally (i.p.), while the positive control group and drug treated groups were sensitised with 1×10^7 SRBC (100 μl i.p.).
# Animals were challenged 5 days later with SRBC. The SRBC were cleaned and counted as described above. Animals anaesthetised with halothane were challenged s.c. by injecting SRBC (3×10^8 cells in 20 μl) into the right hind paws and PBS (20 μl) into the left hind paws. […]
# The difference in paw swelling between the saline-injected and SRBC-challenged contralateral paw of each mouse was calculated by measuring paw volume (mls) using a plethysmometer. […]
# [1] = tested on: IL-2 secretion from Jurkat T cells; experiment: IL-2 secretion from activated Jurkat T cells (ELISA); type: cell-based, human; conditions: for IL-2 [ ]pg/ml (1) / IL-2 % Control (1): experiment (1); for IL-2 % Control (1) / IL-2 % Control (2) / IL-2 % Control (3): relative to DMSO 0.1%; for IL-2 [ ]pg/ml (2) / IL-2 % Control (2): experiment (2); for IL-2 [ ]pg/ml (3) / IL-2 % Control (3): experiment (3)
# Description: The T cell line Jurkat 6.1 (ATCC) was used. Cells were pre-treated for 30 min with 1 μM or 10 μM of the respective compound and then stimulated with plate-bound anti-CD3 (BD Pharmingen) and anti-CD28 (AnCell). DMSO was used as vehicle control. The immunosuppressive agent Cyclosporine A was used as a control for inhibition of IL-2 production. After 24 hs the supernatant was collected and IL-2 secretion was measured by ELISA.
# Jurkat T cells were cultured in RMPI-1640 medium containing 10 % Foetal Bovine Serum, Penicillin/Streptomycin and L-Glutamine in T-75cm2 flasks at 37° C. and 5 % CO2. Cells were seeded into new culture flasks at a density of 1-3×10^5 cells per ml and maintained at a density of 0.5−1×10^6 cells per ml.
# (A) Anti-TCR/CD28-mediated activation of Jurkat cells: Experiments involving anti-TCR/CD28-mediated activation of Jurkat T lymphocytes were carried out on 24-well cell culture plates. The plates were coated with a 1/100 dilution of rabbit anti-mouse IgG in sterile PBS (1×) and incubated overnight at 4OC. Unbound antibody was aspirated and the wells were gently rinsed with warm sterile PBS. The PBS was aspirated and the wells were coated with a 1/100 dilution of anti-TCR antibody (OKT-3) and a 1/200 dilution of anti-CD28 antibody (both antibodies pre-mixed prior to addition to the plates) in sterile PBS. The plates were then incubated for 1-2 hours at 37° C. Unbound antibody was aspirated and the wells were gently rinsed with warm PBS. The PBS was left on the plate until the Jurkat cells were ready to be added to the plate. The Jurkat cells were harvested from the T-75cm2 cell culture flasks and resuspended at a density of 0.5×10^6 cells per ml. The compounds were dissolved at a specified stock concentration (see results section) and diluted to the required concentration by adding the drug to the cell suspension. The cells were then pre-incubated with the compounds or with an equivalent volume of drug vehicle control (DMSO) for 30 minutes prior to adding the cell suspension to the antibody-coated plates. Cyclosporine A (1 μM) was used as a positive control to inhibit IL-2 production from activated T cells and was preincubated with the 6 cells as described above in parallel. The cells were then incubated on the plates with the acti-TCR/CD28 antibodies for 24 hours at 37° C. and 5% CO2 in a humidified atmosphere. After 24 hours, the cell suspension was removed from the plates and the cells were pelleted by centrifugation. The cell culture supernatant was saved and analysed for secreted IL-2 by ELISA. The cell pellet was saved and cell viability was measured using Acridine Orange/Ethidium Bromide cell viability staining solution.
# (B) PHA/PMA-mediated activation of Jurkat cells Jurkat cells were resuspended at a concentration of 0.5×10^6 cells per ml and the Pharmatrin compounds at the desired concentration or an equivalent volume of drug vehicle control (DMSO) were added to the cells and incubated for 30 minutes. Cyclosporine A (1 ∝M) was used as a positive control to inhibit IL-2 production from activated T cells and was preincubated with the cells as described above in parallel. PHA and PMA were added to the cell suspension (10 ∝g/ml and 10 ng/ml respectively) and the cells were plated onto uncoated 24-well plates. The cells were incubated on the plates for 24 hours at 37° C. and 5 % CO2 in a humidified atmosphere. After 24 hours, the cell suspension was removed from the plates and the cells were pelleted by centrifugation. The cell culture supernatant was saved and analysed for secreted IL-2 by ELISA.
# The cell culture supernatants were analysed for IL-2 by ELISA (96-well plate format) using the Human IL-2 ELISA kit from R&D Systems Europe. This assay was carried out using the standard protocol outlined by the company. Samples and standards (recombinant human IL-2 provided by R&D Systems) were analysed in triplicate. […]
# [2] = tested on: β-hexosaminidase release from RBL-2H3 cells; conditions: RBL-2H3 cells stimulated by calcium ionophore A23187; Bioorg. Med. Chem. Lett. 19(20), 2009; cited from earlier work
SMILES,SRBC paw swelling (CD-1 mice),IL2 release from Jurkat cells [1],IL-2 [ ]pg/ml (1) ([1]; 0.3 uM),IL-2 % Control (1) ([1]; 0.3 uM),IL-2 [ ]pg/ml (2) ([1]; 0.3 uM),IL-2 % Control (2) ([1]; 0.3 uM),IL-2 [ ]pg/ml (3) ([1]; 0.3 uM),IL-2 % Control (3) ([1]; 0.3 uM),IL-2 [ ]pg/ml (1) ([1]; 1 uM),IL-2 % Control (1) ([1]; 1 uM),IL-2 [ ]pg/ml (2) ([1]; 1 uM),IL-2 % Control (2) ([1]; 1 uM),IL-2 [ ]pg/ml (3) ([1]; 1 uM),IL-2 % Control (3) ([1]; 1 uM),IL-2 [ ]pg/ml (1) ([1]; 3 uM),IL-2 % Control (1) ([1]; 3 uM),IL-2 [ ]pg/ml (2) ([1]; 3 uM),IL-2 % Control (2) ([1]; 3 uM),IL-2 [ ]pg/ml (3) ([1]; 3 uM),IL-2 % Control (3) ([1]; 3 uM),other results
"O[C@H]1c2ccccc2C[C@]1(Cc1ccccc1)C1=Cc2ccccc2C1 (mixture of isomers) [Compound 6, (S,S and RR)2-Benzyl-2,3-dihydro-1H,1′H-2,2′-biinden-1-ol]",52%,inhibited IL2 release,63.72 pg/mL,87.26%,74.50 pg/mL,114.09%,101.75 pg/mL,77.34%,58.72 pg/mL,80.41%,51.60 pg/mL,79.02%,112.44 pg/mL,85.47%,47.83 pg/mL,65.50%,29.15 pg/mL,44.64%,104.44 pg/mL,79.39%,IL-2 [ ]pg/ml (1) ([1]; 10 uM): 27.72 pg/mL; IL-2 % Control (1) ([1]; 10 uM): 37.96%; IL-2 [ ]pg/ml (2) ([1]; 10 uM): 36.15 pg/mL; IL-2 % Control (2) ([1]; 10 uM): 55.36%; IL-2 [ ]pg/ml (3) ([1]; 10 uM): 75.19 pg/mL; IL-2 % Control (3) ([1]; 10 uM): 57.15%; IL-2 [ ]pg/ml (1) ([1]; 30 uM): 4.72 pg/mL; IL-2 % Control (1) ([1]; 30 uM): 6.47%; IL-2 [ ]pg/ml (2) ([1]; 30 uM): 47.60 pg/mL; IL-2 % Control (2) ([1]; 30 uM): 72.89%; IL-2 [ ]pg/ml (3) ([1]; 30 uM): 16.47 pg/mL; IL-2 % Control (3) ([1]; 30 uM): 12.52%; IL-2 [ ]pg/ml (1) ([1]; 100 uM): -10.11 pg/mL; IL-2 % Control (1) ([1]; 100 uM): −13.85%; IL-2 [ ]pg/ml (2) ([1]; 100 uM): -19.75 pg/mL; IL-2 % Control (2) ([1]; 100 uM): −30.25%; IL-2 [ ]pg/ml (3) ([1]; 100 uM): 1.97 pg/mL; IL-2 % Control (3) ([1]; 100 uM): 1.50%
"O[C@@H]1c2ccccc2C[C@]1(Cc1ccccc1)C1=Cc2ccccc2C1 (mixture of isomers) [Compound 5, (R,S and SR)2-Benzyl-2,3-dihydro-1H,1′H-2,2′-biinden-1-ol]",60%,inhibited IL2 release,32.00 pg/mL,156.86%,87.25 pg/mL,133.61%,164.41 pg/mL,124.97%,21.85 pg/mL,107.11%,64.65 pg/mL,99.00%,127.84 pg/mL,97.18%,10.90 pg/mL,53.43%,83.25 pg/mL,60.20%,97.38 pg/mL,74.02%,IL-2 [ ]pg/ml (1) ([1]; 10 uM): 8.75 pg/mL; IL-2 % Control (1) ([1]; 10 uM): 42.89%; IL-2 [ ]pg/ml (2) ([1]; 10 uM): 63.80 pg/mL; IL-2 % Control (2) ([1]; 10 uM): 97.70%; IL-2 [ ]pg/ml (3) ([1]; 10 uM): 70.72 pg/mL; IL-2 % Control (3) ([1]; 10 uM): 53.76%; IL-2 [ ]pg/ml (1) ([1]; 30 uM): 16.25 pg/mL; IL-2 % Control (1) ([1]; 30 uM): 79.66%; IL-2 [ ]pg/ml (2) ([1]; 30 uM): 5.75 pg/mL; IL-2 % Control (2) ([1]; 30 uM): 8.81%; IL-2 [ ]pg/ml (3) ([1]; 30 uM): 6.69 pg/mL; IL-2 % Control (3) ([1]; 30 uM): 5.08%; IL-2 [ ]pg/ml (1) ([1]; 100 uM): -10.40 pg/mL; IL-2 % Control (1) ([1]; 100 uM): −50.98%; IL-2 [ ]pg/ml (2) ([1]; 100 uM): -13.05 pg/mL; IL-2 % Control (2) ([1]; 100 uM): −19.98%; IL-2 [ ]pg/ml (3) ([1]; 100 uM): 0.28 pg/mL; IL-2 % Control (3) ([1]; 100 uM): 0.21%; inhibition of β-hexosaminidase release [2]: dose-dependant inhibition
